{"source": "patent US20090042783A1", "about": "“APO E ANALOGS AND METHODS FOR THEIR USE” (priority 2004, published 2009)", "key": {"[1]": {"experiment": "Maximum tolerated dose, tail vein injection", "conditions": "mouse, in vivo, intravenous, highest dose with death of no mice in 24 hours, tail vein", "experimental": "(§1) Candidate compounds are then be screened in our closed head injury model of traumatic brain injury by intravenous dosing at 30 minutes post injury. Novel compounds are initially tested at one half their maximum tolerated dose (0.5×MTD). The maximum tolerated dose (MTD) is the dose of peptide given in a tail vein injection that results in no death of mice. Death is defined as a complete lack of breathing and complete unresponsiveness to external stimuli such as tail pinch and/or toe pinch for a period of 10 or more minutes. Animals are given an initial dose of 1 mg/kg of peptide analog or non-peptide mimetic and observed continuously for 15 minutes and then at 15 minute intervals for 2 hours and then at 1 hour intervals for 4 hours more. Animals are also observed at 24 hours post injection.\n(§2) The maximum tolerated dose is the maximum dose at which no animals die at any of these observation times. As an example of this procedure, the MTD is determined empirically by initially dosing groups of 3 mice at 1 mg/kg. If this dose is tolerated, then another group of 3 mice is dosed at 3 mg/kg. If this dose is tolerated, then another group of 3 mice is dosed at 9 mg/kg, etc. If, for example, 9 mg/kg is not tolerated because 1 or more animal died, then doses in-between 3 mg/kg and 9 mg/kg are investigated until the MTD is found. Once the MTD is empirically determined, it is confirmed in another group of 7 mice for a total of 10 mice being tested at the MTD and all of which must not die to confirm that this is the MTD."}, "mice": {"system": "mice", "experiment": "Maximum tolerated dose, tail vein injection", "conditions": "mouse, in vivo", "experimental": "as §1, §2"}, "[2]": {"system": "mice with traumatic brain injury", "experiment": "Closed head injury model of traumatic brain injury (rotorod, Morris Water Maze)", "procedure": "C57Bl/6J male mice (The Jackson Laboratory, ME), 12-16 weeks of age and weighing 24-32 g, are used for all experiments. Anesthesia is first induced with isoflurane in 30% O2/balance N2. The trachea is intubated and the lungs mechanically ventilated with 1.6% isoflurane in 30% O2/balance N2. Temperature is monitored with a rectal probe and maintained at 36.5° C. with a heat lamp. The right internal jugular vein is cannulated with silicone catheter. […] Intubated animals are then placed prone on a molded acrylic cast (FIG. 6A). […] The scalp is incised and the skull exposed. A concave 3 mm metallic disc is secured to the skull surface (with the concave surface in juxtaposition to the skull) by an adhesive. […] The disc is placed directly midline just caudal to bregma (FIG. 6B). […] The mice are positioned in a stereotactic frame. Although the stereotactactic frame helps to stabilize the animal and exactly calibrate the vertical displacement on impact (3 mm), ear bars are not used due to a much higher rate of skull fracture (or brainstem injury if the head rotates around the axis of the ear bars during impact). The piston is discharged at 6.8±0.2 m/s so as to impact the skull in the acrylic mold to move a maximum of approximately 3 mm (FIG. 6C). Inspired isoflurane is decreased to 0.7% immediately after impact. The scalp was infiltrated with lidocaine and closed with suture. Ophthalmic ointment was applied to the eyes for protection. The incidence of skull fracture is low (approximately 10%), as the metal disk helps to diffuse the impact, and the absence of ear bar fixation allows for displacement of the entire head. Mice were excluded if a depressed skull fracture was observed (incidence of approximately 10%). The animals are allowed to recover spontaneous ventilation then extubated. […] In these mice, arterial blood pressure, blood gas and glucose measurement at baseline, immediately after injury, and 15 minutes after injury are monitored during the recovery period.\nBriefly, baseline performance on rotorod is established before the mice are intubated, the skin over the scalp reflected and a controlled cortical impact from a pneumatic impactor given on the midline. The skin is closed with surgical clips and the animals are constantly monitored until awake from anesthesia and then hourly for the next 4 hours. […] Performance on rotorod is tested at 24 hours post impaction and then every day for 5 days and data is presented as described. Groups of 12 mice are used for each compound at 0.5×MTD. […] Novel peptides and non-peptide analogs are also given by tail vein injection.\nDaily Rotarod (RR) testing was used to assess short term motor and cerebellar deficit following head injury (Hamm et al., 1994). Mice were held by their tails and placed on the RR facing the wall by using gentle swinging motion while running in a constant speed mode."}, "in vivo": {"experiment": "in vivo", "conditions": "male, C57B1/6, mouse, 0.4 mg/kg"}, "[3]": {"conditions": "mouse, in vivo", "source_text": "We have employed a similar LC/MS procedure to identify fragments of COG1410 that may arise by degradation processes."}, "RAW 264.7 macrophages [4]": {"system": "RAW 264.7 macrophages"}, "RAW 264.7 macrophages [5]": {"system": "RAW 264.7 macrophages", "experiment": "NO production and iNOS mRNA in C. rodentium-stimulated macrophages", "assay_type": "cell-based, mouse", "conditions": "C. rodentium lysates; COG1410 2 μM, COG4502 0.1-5 μM", "description": "RAW 264.7 cells were stimulated with French-pressed lysates of C. rodentium at a multiplicity of infection of 100. […] B, RT-PCR for iNOS.\nWe used bacterial lysates to more closely mimic the bacterial products to which lamina propria macrophages are likely to be exposed."}}, "note": "Non-standard residues stand in square brackets, D forms with d. Residues, ends and D or L forms follow the SMILES beside them. Aib = CC(C)(N)C(=O)O", "data": [{"smiles": "CC(=O)N[C@@H](C)C(=O)N[C@@H](CO)C(=O)NC(C)(C)C(=O)N[C@@H](CC(C)C)C(=O)N[C@@H](CCCNC(=N)N)C(=O)N[C@@H](CCCCN)C(=O)N[C@@H](CC(C)C)C(=O)NC(C)(C)C(=O)N[C@@H](CCCCN)C(=O)N[C@@H](CCCNC(=N)N)C(=O)N[C@@H](CC(C)C)C(=O)N[C@@H](CC(C)C)C(N)=O", "note": "[COG1410, Ac-AS-Aib-LRKL-Aib-KRLL-NH2] (Ac-AS[Aib]LRKL[Aib]KRLL-NH2)", "values": [{"measurement": "MTD at 24 h", "setting": "[1]", "result": 8, "unit": "mg/kg"}, {"measurement": "Therapeutic Index (ratio of the MTD to the MED)", "setting": "mice", "result": 26}, {"measurement": "Neuroprotection (rotorod) when administered 120 minutes after TBI", "setting": "[2]; 120 minutes after TBI, vs saline", "result": "neuroprotective"}, {"measurement": "Minimum effective dose (MED)", "setting": "[2]; lowest dose with statistically significant improvement vs vehicle, preliminary", "result": 0.3, "unit": "mg/kg"}, {"measurement": "Gain in therapeutic window as compared to COG133", "setting": "[2]; mouse, in vivo", "result": 4, "unit": "fold"}, {"measurement": "half-life", "setting": "in vivo", "result": 2, "unit": "min"}, {"measurement": "Major metabolite in plasma", "setting": "[3]", "result": "acetyl-AS-Aib-LRKL-Aib-KR"}, {"measurement": "Biologic Activity relative to COG133", "setting": "BV2 microglial cells; Table 2, preliminary data", "result": ">5", "unit": "x x COG133"}, {"measurement": "IC50", "setting": "BV2 microglial cells; read-out: IC50, inhibition of nitric oxide release, BV2 cells, LPS for 40 hours, approximate", "result": "~2000", "unit": "nM"}, {"measurement": "Concentration at which cell toxicity was noted", "setting": "RAW 264.7 macrophages [4]", "result": "≥ 5", "unit": "µM"}, {"measurement": "NO production (nitrite levels) in macrophage supernatants", "setting": "RAW 264.7 macrophages [5]", "result": "inhibition of NO production"}]}]}
